Assay results published in patent publication US20170260178A1 (SPERO GYRASE, INC., priority 2012, published 2017).
Converted amounts (≈) assume the structure as drawn.

Legend:
S. aureus (ATCC 29213) = assay: Bacterial assay: MIC against S. aureus; type: cell-based, Staphylococcus aureus; details: Staphylococcus aureus, ATCC29213, read-out: minimal inhibitory concentration (MIC)
S. pyogenes (ATCC 51339) = assay: Bacterial assay: MIC against S. pyogenes; type: cell-based, Streptococcus pyogenes; details: Streptococcus pyogenes, ATCC51339, read-out: minimal inhibitory concentration (MIC)

| Compound | MIC (S. aureus (ATCC 29213)) | MIC (S. pyogenes (ATCC 51339)) |
| --- | --- | --- |
| CCNC(=O)Nc1nc2cc(-c3cnc(C(C)(C)OC(=O)CCC(=O)O)nc3)cc(-c3ccccn3)c2s1 [Compound 21, 4-[1-[5-[2-(ethylcarbamoylamino)-7-(2-pyridyl)-1,3-benzothiazol-5-yl]pyrimidin-2-yl]-1-methyl-ethoxy]-4-oxo-butanoic acid] | 4 µg/mL (≈ 7.48 µM) | ≤ 1 µg/mL |
| CCNC(=O)Nc1nc2cc(-c3cnc(C(C)(C)O)nc3)c(OCCN3CCOCC3)cc2s1 [Compound 199, 1-ethyl-3-[5-[2-(1-hydroxy-1-methyl-ethyl)pyrimidin-5-yl]-6-(2-morpholinoethoxy)-1,3-benzothiazol-2-yl]urea] | 2 µg/mL (≈ 4.11 µM) | 2 µg/mL (≈ 4.11 µM) |
| CCNC(=O)Nc1nc2cc(-c3cnc(C(C)(C)O)nc3)c(F)cc2s1 [Compound 177, 1-ethyl-3-[6-fluoro-5-[2-(1-hydroxy-1-methyl-ethyl)pyrimidin-5-yl]-1,3-benzothiazol-2-yl]urea] | ≤ 1 µg/mL | 2 µg/mL (≈ 5.33 µM) |
| CCNC(=O)Nc1nc2cc(-c3cnc(C(C)(C)O)nc3)cc(-c3ccc(N4CCC(C)(C(=O)O)CC4)cn3)c2s1 [Compound 45, 1-[6-[2-(ethylcarbamoylamino)-5-[2-(1-hydroxy-1-methyl-ethyl)pyrimidin-5-yl]-1,3-benzothiazol-7-yl]-3-pyridyl]-4-methyl-piperidine-4-carboxylic acid] | 2 µg/mL (≈ 3.47 µM) | ≤ 1 µg/mL |
| CCNC(=O)Nc1nc2cc(-c3cnc(C(C)(C)O)nc3)cc(-c3cc(CN4C[C@@H](C)O[C@@H](C)C4)ccn3)c2s1 [Compound 164, 1-[7-[4-[[(2R,6S)-2,6-dimethylmorpholin-4-yl]methyl]-2-pyridyl]-5-[2-(1-hydroxy-1-methyl-ethyl)pyrimidin-5-yl]-1,3-benzothiazol-2-yl]-3-ethyl-urea] | ≤ 1 µg/mL | ≤ 1 µg/mL |
| CCNC(=O)Nc1nc2cc(-c3cnc(C(C)(C)O)nc3)cc(-c3cc(CN4CCC(O)C4)ccn3)c2s1 (stereo not shown) [Compound 29, 1-ethyl-3-[5-[2-(1-hydroxy-1-methyl-ethyl)pyrimidin-5-yl]-7-[4-[(3-hydroxypyrrolidin-1-yl)methyl]-2-pyridyl]-1,3-benzothiazol-2-yl]urea] | ≤ 1 µg/mL | ≤ 1 µg/mL |
| CCNC(=O)Nc1nc2cc(-c3cnc(C(C)(C)O)nc3)cc(-c3cc(NC4CCC(C)(C(=O)O)CC4)ccn3)c2s1 (stereo not shown) [Compound 54, 4-[[2-[2-(ethylcarbamoylamino)-5-[2-(1-hydroxy-1-methyl-ethyl)pyrimidin-5-yl]-1,3-benzothiazol-7-yl]-4-pyridyl]amino]-1-methyl-cyclohexanecarboxylic acid] | ≤ 1 µg/mL | ≤ 1 µg/mL |
| CCNC(=O)Nc1nc2cc(-c3cnc(C(C)(C)O)nc3)cc(-c3cc(N4CCC(C(=O)O)CC4)ccn3)c2s1 [Compound 110, 1-[2-[2-(ethylcarbamoylamino)-5-[2-(1-hydroxy-1-methyl-ethyl)pyrimidin-5-yl]-1,3-benzothiazol-7-yl]-4-pyridyl]piperidine-4-carboxylic acid] | 2 µg/mL (≈ 3.56 µM) | ≤ 1 µg/mL |
| CCNC(=O)Nc1nc2cc(-c3cnc(C(C)OC(=O)N4CCN(C)CC4)nc3)cc(-c3ccccn3)c2s1 (stereo not shown) [Compound 18, 1-[5-[2-(ethylcarbamoylamino)-7-(2-pyridyl)-1,3-benzothiazol-5-yl]pyrimidin-2-yl]ethyl 4-methylpiperazine-1-carboxylate] | ≤ 1 µg/mL | ≤ 1 µg/mL |
| CCNC(=O)Nc1nc2cc(-c3cnc(C(C)(C)O)nc3)c(OCC3CC3)cc2s1 [Compound 182, 1-[6-(cyclopropylmethoxy)-5-[2-(1-hydroxy-1-methyl-ethyl)pyrimidin-5-yl]-1,3-benzothiazol-2-yl]-3-ethyl-urea] | ≤ 1 µg/mL | ≤ 1 µg/mL |
| CCNC(=O)Nc1nc2cc(-c3cnc(C(C)(C)O)nc3)cc(-c3cc(C(C)N4CCOCC4)ccn3)c2s1 (stereo not shown) [Compound 33, 1-ethyl-3-[5-[2-(1-hydroxy-1-methyl-ethyl)pyrimidin-5-yl]-7-[4-(1-morpholinoethyl)-2-pyridyl]-1,3-benzothiazol-2-yl]urea] | ≤ 1 µg/mL | ≤ 1 µg/mL |
